# Literature values, collected in patent US8808735B2, “Fast wet-massing method for the preparation of calcium-containing compositions” (Takeda Nycomed AS, priority 2005, dated 2014).
# Tested on: fracture rate
# Details: annual injections of 150.000-300.000 IU
substance,measurement,value
vitamin D,overall fracture rate,significant reduction
